From PubChem BioAssay AID1996 come the findings set out here.

Values after ≈ are worked out from the molar mass of the structure shown.

For this data set the following is noted: buffer; pH 7.4; 200.0 µM.
`COc1cc(N)c(Cl)cc1C(=O)OCC(=O)NCC1CCCO1` (configuration not stated) came in with a solubility (kinetic) greater than 51.4 µg/mL. `Cc1cccc(N2CC(O)(c3cccs3)[N+]3=C2CCCCC3)c1.[Br-]` (configuration not stated) yielded a solubility (kinetic) greater than 61.1 µg/mL. Compound `Cc1c(C)[n+](=O)c(-c2ccc(Br)cc2)c(C)n1[O-]` gave a kinetic solubility greater than 46.4 µg/mL. The result for `Cc1nc2ccc(NC(=O)c3ccco3)cc2nc1C` reads greater than 40.1 µg/mL; that for `CCCN1CCC(NC(=S)Nc2cccc(Cl)c2Cl)CC1`, greater than 51.9 µg/mL. `COc1ccc(NC(=S)NC(C)c2ccncc2)cc1OC` (configuration not stated) yielded a kinetic solubility of 46.7 µg/mL (≈ 147 µM).

On to `N#CC1(NC(=O)COC(=O)CN2C(=O)c3ccccc3C2=O)CCCCC1`, for which the kinetic solubility was greater than 55.4 µg/mL.

In the case of `O=C(CCc1ccccc1)N/N=C/c1cccc(O)c1`, the kinetic solubility was greater than 40.2 µg/mL.

For the compound `O=C(O)c1ccccc1C(=O)NC1CCCCNC1=O` (configuration not stated), the solubility (kinetic) is greater than 41.4 µg/mL.

For `Cc1ccc(S(=O)(=O)N2CCOCC2)cc1C(=O)NC1=NCCS1`, the kinetic solubility is greater than 55.4 µg/mL. Regarding `Cc1onc(-c2c(Cl)cccc2Cl)c1NC(=O)NC1CCSC1` (configuration not stated), the kinetic solubility was greater than 55.8 µg/mL. The result for `O=C(CN1C(=O)NC2(CCSC2)C1=O)NCc1ccccc1` (configuration not stated) reads greater than 47.9 µg/mL; that for `Cc1cccc(NC(=O)N2CCC(NC(=O)c3ccco3)CC2)c1`, greater than 49.1 µg/mL. `O=C(NCC1CC1)c1cc([N+](=O)[O-])cc([N+](=O)[O-])c1` returned a solubility (kinetic) greater than 39.8 µg/mL.

The compound `CCOC(=O)C1CCCN(C(=O)CNC(=O)c2ccc(Br)o2)C1` (configuration not stated) showed a solubility (kinetic) greater than 58.1 µg/mL.

In turn, `COc1ccccc1C(c1c(O)nc(SC)[nH]c1=O)c1c(O)nc(SC)[nH]c1=O` yielded a kinetic solubility greater than 65.2 µg/mL. In the case of `Cc1ccc(C(C[N+](=O)[O-])Sc2ccc(N)cc2)cc1` (configuration not stated) it was 21.4 µg/mL (≈ 74.2 µM).

As for `CN(C)CCOC1c2ccccc2C=Cc2ccccc21.O=C(O)/C=C\C(=O)O`, the kinetic solubility was greater than 59.3 µg/mL.

Consider `CCc1ccc(C(=O)OCC(=O)NC2CCCC2)cc1`, for which the kinetic solubility worked out at 11.6 µg/mL (≈ 42.1 µM). In the case of `CS(=O)(=O)N(CC(=O)N1CCOCC1)c1cccc(F)c1` it was 40.7 µg/mL (≈ 129 µM); in that of `CC1Oc2ccccc2N(CC(=O)N2CCCCC2)C1=O` (configuration not stated), greater than 43.3 µg/mL; in that of `Cc1csc(SC(C)C(=O)Nc2ccc3c(c2)OCCO3)n1` (configuration not stated), greater than 50.5 µg/mL.

The compound `O=C(CCNC(=O)c1ccccc1Cl)OCC(=O)c1ccccc1` displayed a kinetic solubility greater than 51.9 µg/mL.

`CC(C)CN1CCN(Cc2cccn2-c2cccnc2)CC1CCO` (configuration not stated) came in with a kinetic solubility of 28.8 µg/mL (≈ 84.1 µM).

Regarding `COc1ccc(N2CCC(CNC(=O)Nc3ccccc3)C2)cc1` (configuration not stated), the kinetic solubility turned out to be 14.8 µg/mL (≈ 45.5 µM). For the compound `CN(Cc1nc2ccccc2c(=O)[nH]1)C(=O)C1CC(=O)N(c2cccc3ccccc23)C1` (configuration not stated), the kinetic solubility is greater than 64 µg/mL. The result for `Cc1sc(NC(=O)C2=COCCO2)c(C(N)=O)c1C` reads greater than 42.3 µg/mL; that for `Cc1cccnc1NC(N)=S`, greater than 25.1 µg/mL. Compound `O=C(COC(=O)c1cnccn1)Nc1cccc2ccccc12` showed a kinetic solubility greater than 46.1 µg/mL. In the case of `Cc1ccc(F)cc1NC(=O)/C=C/c1ccc(S(=O)(=O)N2CCOCC2)cc1` it was 1.8 µg/mL (≈ 4.45 µM). In the case of `COc1ccccc1N1CCN(Cc2cc3c(cc2O)OCO3)CC1`, the solubility (kinetic) is greater than 51.4 µg/mL. The result for `CSc1nc(-c2ccccc2)cc(C)c1C#N` reads less than 0.3 µg/mL. In the case of `COc1ccccc1CNC(=O)C(Cc1ccccc1)NC(=O)c1ccccc1` (configuration not stated) it was 12.8 µg/mL (≈ 33 µM); in that of `CC(=O)Nc1nc(-c2ccc3c(c2)OCO3)cs1`, 8.5 µg/mL (≈ 32.4 µM). In the case of `Cc1ccccc1NC(=O)c1ccco1` it was greater than 30.2 µg/mL; in that of `O=S(=O)(NCc1ccco1)c1ccc(Cl)cc1Cl`, 35 µg/mL (≈ 114 µM). `Cc1ccc(SCCC(=O)N/N=C/c2cccnc2)cc1`: the kinetic solubility was greater than 44.9 µg/mL. In the case of `O=C(Nc1ccc(Br)cn1)c1cccc(S(=O)(=O)N2CCCC2)c1` it was 5.7 µg/mL (≈ 13.9 µM).

Compound `CC1CC1C(=O)N(C)CC(=O)Nc1cccc(F)c1` (configuration not stated) registered a solubility (kinetic) greater than 39.6 µg/mL. In turn, `O=C(OCc1nc2ccccc2s1)c1ccc([N+](=O)[O-])o1` came in with a solubility (kinetic) of 1.1 µg/mL (≈ 3.62 µM). The result for `CC(Oc1ccccc1)C(=O)OCC(=O)Nc1ccc2c(c1)OCO2` (configuration not stated) reads greater than 51.5 µg/mL; that for `OCCN1c2ccccc2CCc2ccccc21`, 21.5 µg/mL (≈ 89.8 µM). The result for `CC(C)=C1SC(N2CCN(c3ccc(C)c(Cl)c3)CC2)=NC1=O` reads 1.9 µg/mL (≈ 5.43 µM); that for `O=C(O)[C@@H]1Cc2ccccc2N1`, 6.6 µg/mL (≈ 40.4 µM). The result for `C=CCNC(=O)C1CCC(=O)N1S(=O)(=O)c1ccc(C)cc1` (configuration not stated) reads greater than 48.4 µg/mL. The compound `O=[N+]([O-])c1ccc(N2CCc3ccccc3C2)cc1` registered a solubility (kinetic) of 0.9 µg/mL (≈ 3.54 µM).

The compound `O=C(CNS(=O)(=O)c1ccc(Cl)cc1)N1CCN(c2ccc(F)cc2)CC1` came in with a solubility (kinetic) of 8.3 µg/mL (≈ 20.2 µM). The result for `Cc1cccc2cc(/C=C/C(=O)c3ccco3)c(Cl)nc12` reads 3.9 µg/mL (≈ 13.1 µM); that for `CSc1ccccc1NC(=O)Cc1ccccc1[N+](=O)[O-]`, 5.7 µg/mL (≈ 18.9 µM). On to `COC(=O)c1ccc(COc2ccc(/C=N/O)cc2OC)o1`, for which the solubility (kinetic) was greater than 45.8 µg/mL.

`Cc1cc2nc3n(c2cc1C)CCCN3` had a solubility (kinetic) greater than 30.2 µg/mL.

`Cc1cc(C(=O)NC(=S)Nc2cccc(C(=O)O)c2C)ccc1[N+](=O)[O-]` had a solubility (kinetic) greater than 56 µg/mL.
